Results: patent publication US20240150368A1, “ULK INHIBITORS AND METHODS OF USE THEREOF” (Deciphera Pharmaceuticals, LLC, priority 2022, published 2024)

Key:
[1] = target: T1, ULK1 kinase (Homo sapiens, UniProt O75385, E37A/K38A); assay: Biochemical assay for ULK1 (coupled pyruvate kinase/lactate dehydrogenase assay); details: 1 mM ATP, 0.1 nM ULK1; read-out: ULK1 (inhibition of biochemical activity), IC50
T1 construct: (residues 1-283; ID NO: 1); purchased Beryllium
T1 sequence (O75385 1-283 E37A/K38A): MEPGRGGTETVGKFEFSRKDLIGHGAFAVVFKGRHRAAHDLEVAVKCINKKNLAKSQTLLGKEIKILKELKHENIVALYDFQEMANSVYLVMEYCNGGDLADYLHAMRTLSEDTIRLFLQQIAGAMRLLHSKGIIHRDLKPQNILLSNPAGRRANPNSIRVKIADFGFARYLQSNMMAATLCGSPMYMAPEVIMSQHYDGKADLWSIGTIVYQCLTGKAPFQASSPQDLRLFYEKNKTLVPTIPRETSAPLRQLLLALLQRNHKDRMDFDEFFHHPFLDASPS
Description: Biochemical Assay for ULK1 (SEQ. ID NO: 1)
Activity of ULK1 kinase was determined spectroscopically using a coupled pyruvate kinase/lactate dehydrogenase assay that continuously monitors the ATP hydrolysis-dependent oxidation of NADH (e.g., Schindler et al. Science (2000) 289: 1938-1942). Assays were conducted in 384-well plates (100 μL final volume) using 0.1 nM ULK1 (from Beryllium), 0.075 mM peptide substrate (YANWLAASIYLDGKKK), 1.5 units pyruvate kinase, 2.1 units lactate dehydrogenase, 1 mM phosphoenol pyruvate, 0.28 mM NADH and 1 mM ATP in assay buffer (100 mM Tris, pH 7.5, 15 mM MgCl2, 0.5 mM DTT, 0.004% (w/v) BSA, and 0.004% Triton X-100). Inhibition of ULK1 was measured by adding serial diluted test compound (final assay concentration of 1% DMSO). A decrease in absorption at 340 nm was monitored continuously for 6 h at 30° C. on a multi-mode microplate reader (BioTek). The reaction rate was calculated using the 2-3 h time frame. The reaction rate at each concentration of compound was converted to percent inhibition using controls (i.e., reaction with no test compound and reaction with a known inhibitor) and IC50 values were calculated using software routines in Prism (GraphPad software).

[2] = target: T2, ULK2 kinase (Homo sapiens, UniProt Q8IYT8); assay: Biochemical assay for ULK2 (coupled pyruvate kinase/lactate dehydrogenase assay); details: 1 mM ATP, 1 nM ULK2; read-out: ULK2 (inhibition of biochemical activity), IC50
T2 construct: (residues 1-306 with N-terminal GST and His tag; ID NO: 2); purchased Signal Chem U02-11G
T2 sequence (Q8IYT8 with tags, fused parts or gaps): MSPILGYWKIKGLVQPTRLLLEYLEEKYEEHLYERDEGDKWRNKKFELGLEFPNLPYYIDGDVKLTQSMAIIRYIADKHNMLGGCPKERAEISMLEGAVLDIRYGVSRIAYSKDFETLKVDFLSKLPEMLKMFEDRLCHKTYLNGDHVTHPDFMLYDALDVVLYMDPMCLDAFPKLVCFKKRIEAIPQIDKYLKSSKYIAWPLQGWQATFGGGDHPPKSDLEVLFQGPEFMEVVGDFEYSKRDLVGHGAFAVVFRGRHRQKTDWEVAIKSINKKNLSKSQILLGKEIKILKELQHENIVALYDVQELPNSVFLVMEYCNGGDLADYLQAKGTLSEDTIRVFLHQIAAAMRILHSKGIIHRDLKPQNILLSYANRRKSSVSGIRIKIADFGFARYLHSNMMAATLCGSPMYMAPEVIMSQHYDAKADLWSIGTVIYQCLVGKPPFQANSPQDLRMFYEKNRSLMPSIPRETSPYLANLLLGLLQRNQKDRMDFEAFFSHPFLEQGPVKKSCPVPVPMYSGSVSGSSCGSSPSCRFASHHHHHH
Description: Biochemical Assay for ULK2 (SEQ. ID NO: 2)
Activity of ULK2 kinase was determined spectroscopically using a coupled pyruvate kinase/lactate dehydrogenase assay that continuously monitors the ATP hydrolysis-dependent oxidation of NADH (e.g., Schindler et al. Science (2000) 289: 1938-1942). Assays were conducted in 384-well plates (100 μL final volume) using 1 nM ULK2 (Signal Chem U02-11G), 200 μM ULKtide, 1.5 units pyruvate kinase, 2.1 units lactate dehydrogenase, 1 mM phosphoenol pyruvate, 0.28 mM NADH and 1 mM ATP in assay buffer (100 mM Tris, pH 7.5, 15 mM MgCl2, 0.5 mM DTT, 0.1% octyl-glucoside, 0.002% (w/v) BSA, and 0.002% Triton X-100). Inhibition of ULK2 was measured by adding serial diluted test compound (final assay concentration of 1% DMSO). A decrease in absorption at 340 nm was monitored continuously for 6 h at 30° C. on a multi-mode microplate reader (BioTek). The reaction rate was calculated using the 2-3 h time frame. The reaction rate at each concentration of compound was converted to percent inhibition using controls (i.e., reaction with no test compound and reaction with a known inhibitor) and IC50 values were calculated by fitting a four-parameter sigmoidal curve to the data using Prism (GraphPad software).

| IC50 [1] [nM] | IC50 [2] [nM] | Compound |
| --- | --- | --- |
| 100 to 500 | – | CC/C(Nc1ccc(N2CCN(C)CC2)cc1)=C1/C(=O)Nc2ccc(C(=O)NOC)cc21 [Example 10] |
| 100 to 500 | – | CC/C(Nc1cnn(C2CCN(C(C)C)CC2)c1)=C1/C(=O)Nc2ccc(C(=O)N3CCCO3)cc21 [Example 12] |
| 100 to 500 | – | CC/C(Nc1cnn(C2CCN(C(C)C)CC2)c1)=C1/C(=O)Nc2ccc(C(=O)NC)cc21 [Example 13] |
| 100 to 500 | – | CCNC(=O)c1ccc2c(c1)/C(=C(\CC)Nc1cnn(C3CCN(C(C)C)CC3)c1)C(=O)N2 [Example 14] |
| 10 to 100 | 100 to 500 | CC/C(Nc1cnn(C2CCN(C(C)C)CC2)c1)=C1/C(=O)Nc2ccc(C(=O)NC(C)C)cc21 [Example 17] |
| 10 to 100 | – | CC/C(Nc1cnn(C2CCN(C(C)C)CC2)c1)=C1/C(=O)Nc2ccc(C(=O)NCC3COC3)cc21 [Example 18] |
| 10 to 100 | 10 to 100 | CC/C(Nc1cnn(C2CCN(C(C)C)CC2)c1)=C1/C(=O)Nc2ccc(C(=O)NC[C@@H]3CCCO3)cc21 [Example 19] |
| > 500 | – | CC/C(Nc1cnn(C2CCN(C(C)C)CC2)c1)=C1/C(=O)Nc2ccc(C(=O)N3CCOCC3)cc21 [Example 20] |
| 10 to 100 | – | CC/C(Nc1cnn(C2CCN(C(C)C)CC2)c1)=C1/C(=O)Nc2ccc(C(=O)NOC)cc21 [Example 22] |
| 10 to 100 | – | COCCNC(=O)c1ccc2c(c1)/C(=C(\C)Nc1cnn(C3CCN(C(C)C)CC3)c1)C(=O)N2 [Example 23] |
| 100 to 500 | > 500 | CC/C(Nc1cnn(C2CCN(C(C)C)CC2)c1)=C1/C(=O)Nc2ccc(C(=O)NC3COC3)cc21 [Example 25] |
| ≤ 10 | – | C/C(Nc1cnn(C2CCN(C(C)C)CC2)c1)=C1/C(=O)Nc2ccc(C(=O)NC[C@H]3CCCO3)cc21 [Example 45] |
| 100 to 500 | – | CC/C(Nc1cnn(C2CCN(C(C)C)CC2)c1)=C1/C(=O)Nc2ccc(C(=O)NCCc3cnn(C)c3)cc21 [Example 49] |
| 100 to 500 | – | CC/C(Nc1cnn(C2CCN(C(C)C)CC2)c1)=C1/C(=O)Nc2ccc(C(=O)NCc3cnn(C)c3)cc21 [Example 50] |
| 10 to 100 | 100 to 500 | CC/C(Nc1cnn(C2CCN(C(C)C)CC2)c1)=C1/C(=O)Nc2ccc(C(=O)NCC3(C)CCCO3)cc21 (stereo not shown) [Example 56] |
| 100 to 500 | – | CC/C(Nc1cnn(C2CCN(C(C)C)CC2)c1)=C1/C(=O)Nc2ccc(C(=O)NCC(=O)N3CCCC3)cc21 [Example 57] |
| 100 to 500 | – | CC/C(Nc1cnn(C2CCN(C(C)C)CC2)c1)=C1/C(=O)Nc2ccc(C(=O)NCCC(=O)N(C)C)cc21 [Example 59] |
| > 500 | – | CC/C(Nc1cnn(C2CCN(C(C)C)CC2)c1)=C1/C(=O)Nc2ccc(C(=O)N3CCCC3)cc21 [Example 81] |
| ≤ 10 | 10 to 100 | CC/C(Nc1cnn(C2CNC2)c1)=C1/C(=O)Nc2ccc(C(=O)NC[C@H]3CCCO3)cc21 [Example 96] |
| 100 to 500 | 10 to 100 | CC/C(Nc1cc(C(C)C)ccn1)=C1/C(=O)Nc2ccc(C(=O)NCC(F)(F)F)cc21 [Example 97] |
| 100 to 500 | > 500 | CC/C(Nc1ccn(C(C)C)n1)=C1/C(=O)Nc2ccc(C(=O)NCC(F)(F)F)cc21 [Example 99] |
| 10 to 100 | 100 to 500 | CC/C(Nc1cnn(C(C)C)n1)=C1/C(=O)Nc2ccc(C(=O)NCC(F)(F)F)cc21 [Example 110] |
| 100 to 500 | 100 to 500 | CC/C(Nc1ccc(C(C)C)nc1)=C1/C(=O)Nc2ccc(C(=O)NCC(F)(F)F)cc21 [Example 111] |
| > 500 | > 500 | CC/C(Nc1cn(C)nc1C)=C1/C(=O)Nc2ccc(C(=O)NCC(F)(F)F)cc21 [Example 115] |
| 10 to 100 | 100 to 500 | CC/C(Nc1cnn(C(C)C)c1)=C1/C(=O)Nc2ccc(C(=O)N[C@@H](C)C(F)(F)F)cc21 [Example 120] |

| IC50 [1] [nM] | IC50 [2] [nM] | Compound |
| --- | --- | --- |
| > 500 | > 500 | CC/C(Nc1cnn2c1CCC2)=C1/C(=O)Nc2ccc(C(=O)NCC(F)(F)F)cc21 [Example 121] |
| 10 to 100 | 100 to 500 | CC/C(Nc1cnn(C(C)C)c1)=C1/C(=O)Nc2ccc(C(=O)N(C)C[C@H]3CCCO3)cc21 [Example 129] |
| 100 to 500 | 100 to 500 | CC/C(Nc1cnn(C(C)C)c1)=C1/C(=O)Nc2ccc(C(=O)NC3CC3)cc21 [Example 131] |
| 100 to 500 | > 500 | CC/C(Nc1cnn(C(C)C)c1)=C1/C(=O)Nc2ccc(C(=O)NC(C)C)cc21 [Example 132] |
| 100 to 500 | > 500 | CC/C(Nc1cnn(C(C)C)c1)=C1/C(=O)Nc2ccc(C(=O)NC)cc21 [Example 133] |
| 100 to 500 | – | CC/C(Nc1cnn(C2CCN(C(C)C)CC2)c1)=C1/C(=O)Nc2ccc(C(=O)N(C)OC)cc21 [Example 139] |
| 100 to 500 | 100 to 500 | CC/C(Nc1cnn(C(C)C)c1)=C1/C(=O)Nc2cc(Cl)c(C(=O)NCC(F)(F)F)cc21 [Example 141] |
| 100 to 500 | > 500 | CC/C(Nc1nc(C)co1)=C1/C(=O)Nc2ccc(C(=O)NCC(F)(F)F)cc21 [Example 143] |
| 100 to 500 | 100 to 500 | CC/C(Nc1nnc(C)o1)=C1/C(=O)Nc2ccc(C(=O)NCC(C)(C)F)cc21 [Example 146] |
| 100 to 500 | > 500 | CC/C(Nc1cnn(C(C)C)c1)=C1/C(=O)Nc2ccc(C(=O)N3CC[C@@H](C(F)(F)F)C3)cc21 [Example 150] |
| 10 to 100 | 100 to 500 | CC/C(Nc1cnn(C(C)C)c1)=C1/C(=O)Nc2ccc(C(=O)N3CC[C@H](C(F)(F)F)C3)cc21 [Example 151] |
| 10 to 100 | 100 to 500 | CC/C(Nc1ncc(C)o1)=C1/C(=O)Nc2ccc(C(=O)NCC(F)(F)F)cc21 [Example 155] |
| > 500 | > 500 | CC/C(Nc1cnn(C(C)C)c1)=C1/C(=O)Nc2ccc(C(=O)NCCN3CCC3)cc21 [Example 162] |
| 10 to 100 | 100 to 500 | CC/C(Nc1cnn(C(C)C)c1)=C1/C(=O)Nc2ccc(C(=O)NCC3(OC)CC3)cc21 [Example 163] |
| ≤ 10 | 10 to 100 | CC/C(Nc1cnn(C(C)C)c1)=C1/C(=O)Nc2ccc(C(=O)NCCC(C)(C)F)cc21 [Example 164] |
| ≤ 10 | ≤ 10 | CC/C(Nc1cnn(C2CCC2)c1)=C1/C(=O)Nc2ccc(C(=O)NCC(C)(C)F)cc21 [Example 165] |
| 100 to 500 | 100 to 500 | CC/C(Nc1cnn(C(C)C)c1)=C1/C(=O)Nc2ccc(C(=O)NC(C)(C)CC(F)(F)F)cc21 [Example 167] |
| 100 to 500 | 100 to 500 | CC/C(Nc1cnn(C(C)C)c1)=C1/C(=O)Nc2ncc(C(=O)NCC(C)(C)F)cc21 [Example 170] |
| 100 to 500 | 100 to 500 | CC/C(Nc1cnn(C(C)C)c1)=C1/C(=O)Nc2ncc(C(=O)NCC(F)(F)F)cc21 [Example 171] |
| 10 to 100 | 100 to 500 | CC/C(Nc1cnn(C(C)C)c1)=C1/C(=O)Nc2ncc(C(=O)NCC3(F)CC3)cc21 [Example 172] |
| ≤ 10 | 100 to 500 | CC/C(Nc1cnn(C(C)C)c1)=C1/C(=O)Nc2ccc(C(=O)N(CC(F)(F)F)C3CC3)cc21 [Example 175] |
| > 500 | > 500 | CC/C(Nc1cnn(C(C)C)c1)=C1/C(=O)Nc2ccc(C(=O)CN(C)C)cc21 [Example 176] |
| > 500 | > 500 | CC/C(Nc1cnn(C(C)C)c1)=C1/C(=O)Nc2ccc(C(=O)Nc3cnn(CC(F)(F)F)c3)cc21 [Example 178] |
| > 500 | > 500 | CC/C(Nc1cncc(C(C)C)c1)=C1/C(=O)Nc2ccc(C(=O)NCC(F)(F)F)cc21 [Example 182] |
| 10 to 100 | 10 to 100 | CC/C(Nc1cnn(C(C)C)c1)=C1/C(=O)Nc2ccc(C(N)=O)cc21 [Example 183] |
